Assay results as given in patent US20110112110A1, “ANTIPROLIFERATIVE COMPOUNDS AND THERAPEUTIC USES THEREOF” (UNIVERSITA' DEGLISTUDI DI MILANO- BICOCCA, priority 2008, published 2011).
Where two headings read alike, the source gives them in different places.

Legend:
[1] = target: T1, Recombinant ALK kinase (Homo sapiens, UniProt Q9UM73); assay: ELISA-based in vitro kinase assay (ALK kinase inhibitory activity); assay type: biochemical
T1 construct: His tag (from pBlueBacHis2C vector); made in house; host or cells: insect cells, baculovirus
T1 sequence (Q9UM73 19-1620): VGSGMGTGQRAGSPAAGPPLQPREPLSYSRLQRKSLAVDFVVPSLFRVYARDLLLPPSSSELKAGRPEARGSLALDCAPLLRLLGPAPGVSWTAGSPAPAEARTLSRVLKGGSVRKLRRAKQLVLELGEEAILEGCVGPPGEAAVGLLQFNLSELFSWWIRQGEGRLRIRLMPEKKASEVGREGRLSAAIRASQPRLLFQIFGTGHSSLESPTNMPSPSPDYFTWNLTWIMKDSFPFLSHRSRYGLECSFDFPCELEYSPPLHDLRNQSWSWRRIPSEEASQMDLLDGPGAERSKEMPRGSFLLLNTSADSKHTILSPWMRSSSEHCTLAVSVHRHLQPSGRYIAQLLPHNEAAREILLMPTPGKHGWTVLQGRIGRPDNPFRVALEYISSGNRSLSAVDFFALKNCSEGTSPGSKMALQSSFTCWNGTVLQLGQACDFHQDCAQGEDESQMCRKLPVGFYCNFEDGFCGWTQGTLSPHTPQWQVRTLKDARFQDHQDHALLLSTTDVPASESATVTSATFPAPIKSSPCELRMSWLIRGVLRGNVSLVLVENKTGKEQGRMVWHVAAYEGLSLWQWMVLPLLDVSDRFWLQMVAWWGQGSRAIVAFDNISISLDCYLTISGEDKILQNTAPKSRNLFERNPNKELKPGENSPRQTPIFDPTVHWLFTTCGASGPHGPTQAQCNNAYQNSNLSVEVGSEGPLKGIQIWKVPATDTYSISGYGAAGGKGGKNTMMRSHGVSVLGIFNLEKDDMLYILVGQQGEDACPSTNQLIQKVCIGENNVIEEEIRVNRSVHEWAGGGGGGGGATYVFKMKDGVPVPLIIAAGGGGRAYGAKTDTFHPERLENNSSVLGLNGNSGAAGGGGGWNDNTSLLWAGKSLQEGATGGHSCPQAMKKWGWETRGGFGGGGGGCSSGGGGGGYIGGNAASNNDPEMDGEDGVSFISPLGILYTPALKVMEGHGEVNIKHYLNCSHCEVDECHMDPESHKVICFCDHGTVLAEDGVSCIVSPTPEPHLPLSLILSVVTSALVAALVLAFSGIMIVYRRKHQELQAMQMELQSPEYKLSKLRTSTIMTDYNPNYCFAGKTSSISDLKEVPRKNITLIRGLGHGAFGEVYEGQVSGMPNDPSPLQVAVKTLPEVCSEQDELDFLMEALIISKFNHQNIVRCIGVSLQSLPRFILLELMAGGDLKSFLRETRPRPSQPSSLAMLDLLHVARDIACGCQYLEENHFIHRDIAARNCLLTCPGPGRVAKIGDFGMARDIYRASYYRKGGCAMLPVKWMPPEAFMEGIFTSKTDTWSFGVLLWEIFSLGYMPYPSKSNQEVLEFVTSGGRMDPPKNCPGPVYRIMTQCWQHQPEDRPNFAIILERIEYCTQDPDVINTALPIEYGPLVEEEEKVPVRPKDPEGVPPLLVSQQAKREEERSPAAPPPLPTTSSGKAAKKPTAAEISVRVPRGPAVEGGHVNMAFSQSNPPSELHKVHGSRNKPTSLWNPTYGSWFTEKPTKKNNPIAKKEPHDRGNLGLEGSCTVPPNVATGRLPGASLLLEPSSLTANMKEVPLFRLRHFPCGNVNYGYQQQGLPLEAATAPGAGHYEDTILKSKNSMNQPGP
Description: (§1) Method: ELISA-Based In Vitro Kinase Assay
Recombinant ALK kinase was expressed in […] insect cells using the pBlueBacHis2C baculovirus vector system and purified using an anion exchange Fast Flow Q-sepharose column (Amersham-Pharmacia Biotech) followed by HiTrap™-nickel affinity column (Amersham-Pharmacia Biotech). Purified ALK protein was used to screen inhibitors in the ELISA-based kinase assay. […] Wells were then washed with 200 μl of wash buffer (PBS-Tween 0.05%) and left to dry for at least 2 hours at 37° C. The kinase reaction was performed in the presence of 50 mM Tris pH 7.5, 5 mM MnCl2, 5 mM MgCl2, 0.3 mM ATP and purified rALK in a total volume of 100 μl/well at 30° C. for 15 minutes. For inhibitor testing the reaction mix was preincubated with the inhibitor or solvent control for 10 mins at room temperature before transferring to the ELISA plate. After the reaction wells were washed 5 times with 200 μl of wash buffer. Phosphorylated peptide was detected using 100 μl/well of a mouse monoclonal anti-phosphotyrosine antibody (clone 4G10 UpstateBiotech Ltd) diluted 1:2000 in PBS+4% BSA. After 30 minutes incubation at room temperature the antibody was removed and wells were washed as described above. 100 μl of a secondary antibody (anti-mouse IgG, Horseradish Peroxidase linked whole antibody, Amersham Pharmacia Biotech) diluted 1:1000 in PBS+4% BSA was added to each well and the plate was incubated again for 30 minutes at room temperature before washing as above. The plate was developed using 100 μl/well TMB Substrate Solution (Endogen) and the reaction was stopped by adding an equal volume of H2SO4 0.36 M. Finally, the absorbance was read at 450 nm using an Ultrospec® 300 spectrophotometer (Amersham-Pharmacia Biotech).

[2] = target: T2, BaF3 cells transformed with NPM/ALK (Homo sapiens, UniProt Q9UM73); assay: Tritiated thymidine uptake cell proliferation assay; assay type: cell-based; settings: read-out: IC50 values on the proliferation of BaF3 cells transformed with NPM/ALK; 72 h incubation, 3[H]-thymidine uptake
T2 construct: fused on or other part: P06748 (Nucleophosmin)
T2 sequence (Q9UM73 whole entry, change not shown, the tested form may be a part): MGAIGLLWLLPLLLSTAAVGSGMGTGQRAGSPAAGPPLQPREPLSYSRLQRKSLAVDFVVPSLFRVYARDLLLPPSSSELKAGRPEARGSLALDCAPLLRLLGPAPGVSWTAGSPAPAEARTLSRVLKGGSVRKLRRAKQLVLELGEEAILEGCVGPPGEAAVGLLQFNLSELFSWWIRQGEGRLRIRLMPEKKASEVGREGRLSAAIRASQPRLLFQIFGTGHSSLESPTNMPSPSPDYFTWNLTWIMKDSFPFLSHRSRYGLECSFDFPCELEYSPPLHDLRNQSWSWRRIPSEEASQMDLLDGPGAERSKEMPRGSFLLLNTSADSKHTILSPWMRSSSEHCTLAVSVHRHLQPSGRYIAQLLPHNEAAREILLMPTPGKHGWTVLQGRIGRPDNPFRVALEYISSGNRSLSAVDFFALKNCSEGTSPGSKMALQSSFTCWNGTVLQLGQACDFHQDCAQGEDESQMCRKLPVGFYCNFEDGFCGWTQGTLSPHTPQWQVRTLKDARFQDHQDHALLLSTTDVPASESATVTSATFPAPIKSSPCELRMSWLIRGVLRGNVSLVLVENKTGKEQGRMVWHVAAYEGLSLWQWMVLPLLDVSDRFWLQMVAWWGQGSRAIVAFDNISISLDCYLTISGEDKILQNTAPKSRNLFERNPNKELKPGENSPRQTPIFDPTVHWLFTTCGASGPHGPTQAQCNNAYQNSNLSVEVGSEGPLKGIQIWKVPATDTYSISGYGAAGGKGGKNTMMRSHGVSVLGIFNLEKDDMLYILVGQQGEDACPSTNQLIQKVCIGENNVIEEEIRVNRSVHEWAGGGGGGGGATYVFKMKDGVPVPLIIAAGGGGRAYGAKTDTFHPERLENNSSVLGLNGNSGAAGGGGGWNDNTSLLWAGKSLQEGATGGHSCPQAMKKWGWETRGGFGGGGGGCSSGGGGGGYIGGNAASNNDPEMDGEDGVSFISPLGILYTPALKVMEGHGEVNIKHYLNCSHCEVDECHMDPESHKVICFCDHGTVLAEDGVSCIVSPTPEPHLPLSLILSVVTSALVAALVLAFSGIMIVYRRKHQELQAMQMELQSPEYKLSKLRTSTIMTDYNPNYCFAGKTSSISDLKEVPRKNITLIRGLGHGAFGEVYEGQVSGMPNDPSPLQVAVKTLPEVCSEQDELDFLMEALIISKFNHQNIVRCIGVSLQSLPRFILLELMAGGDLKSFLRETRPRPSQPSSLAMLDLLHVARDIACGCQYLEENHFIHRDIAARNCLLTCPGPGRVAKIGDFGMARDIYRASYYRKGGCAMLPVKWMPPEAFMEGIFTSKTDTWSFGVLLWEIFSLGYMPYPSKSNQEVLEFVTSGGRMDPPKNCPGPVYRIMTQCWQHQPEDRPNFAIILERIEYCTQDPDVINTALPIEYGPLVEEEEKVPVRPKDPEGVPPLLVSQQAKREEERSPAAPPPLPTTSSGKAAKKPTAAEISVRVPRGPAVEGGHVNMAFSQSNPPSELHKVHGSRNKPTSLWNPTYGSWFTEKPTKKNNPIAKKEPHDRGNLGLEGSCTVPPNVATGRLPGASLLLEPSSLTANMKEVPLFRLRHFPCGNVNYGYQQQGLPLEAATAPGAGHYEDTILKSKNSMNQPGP
Description: Method: Tritiated Thymidine Uptake Cell Proliferation Assay
BaF3 cells, transformed with the oncogenic fusion protein NPM/ALK, were seeded in U-bottomed 96-well plates at 10 000 cells/well in a volume of 100 μL in supplemented medium. Serial dilutions of inhibitors were added to the appropriate wells and volumes adjusted to 200 μL. Controls were treated with the equivalent volume of vehicle, DMSO, alone. Plates were incubated at 37° C. for 72 h. ^3[H-]-thymidine (1 μCi/well) was added for the last 16 h of incubation. Cells were harvested on to glass filters and ^3[H]-thymidine incorporation was measured using a scintillation counter (1430 MicroBeta, Wallac, Turku, Finland).

[3] = target: T3, Recombinant Abl T315I (Homo sapiens, UniProt P00519, T315I); assay: ELISA-based in vitro kinase assay (Abl T315I mutant kinase inhibitory activity); assay type: biochemical; settings: purified Abl T315I, 0.3 mM ATP, peptide substrate
T3 construct: His tag (from pBlueBacHis2C vector); made in house; host or cells: Sf9 insect cells, baculovirus
Description: as §1
Recombinant Abl T315I protein was expressed in Sf9 cells using the pBlueBacHis2C baculovirus expression vector. Abl T315I was purified using an anion exchange Fast Flow Q-sepharose column (Amersham-Pharmacia Biotech) followed by HiTrap™-nickel affinity column (Amersham-Pharmacia Biotech). Purified Abl T3151 was used in the ELISA-based kinase assay to screen inhibitors as described above. The kinase reaction was performed in the presence of 50 mM Tris pH 7.5, 1 mM MnCl2, 5 mM MgCl2, 0.3 mM ATP, peptide substrate ([…]) and purified Abl T315I.

[4] = purified rALK, 0.3 mM ATP, ALK peptide substrate, 30° C. 15 minutes, read-out: IC50 values on ALK

SMILES | IC50 [1, 4] [µM] | further results
c1ccc2c(-c3ncc(-c4ccc(-c5cnc(-c6cccc7ccccc67)o5)cc4)o3)cccc2c1 [r19] | 1.2 | –
Clc1ccc(-c2csc(-c3ccc(-c4csnn4)cc3)n2)cc1Cl [r35] | 7.7 ± 0.2 | –
c1cc(-c2nc(-c3ccc4c(c3)OCCCO4)cs2)ccc1-c1csnn1 [r36] | 27 | –
COCCCNc1nc(-c2ccc(-c3ccccc3)cc2)cs1 [r43] | 27.3 | –
O=S(=O)(Cc1ccco1)Cc1nc(-c2ccc(-c3ccccc3)cc2)cs1 [r48] | 1.6 ± 0.15 | –
O=C1Nc2ccc(Br)cc2/C1=N/Nc1nc(-c2ccc(-c3ccccc3)cc2)cs1 [r49] | 1.5 ± 0.17 | GI50 [2]: 12 µM
O=C(N/N=C/c1c[nH]c2ccccc12)c1cc(-c2ccc(-c3ccccc3)cc2)[nH]n1 [r66] | 3.6 ± 0.5 | GI50 [2]: 4.8 µM
N#C/C(=C\c1cccs1)c1nc(-c2ccc(-c3ccccc3)cc2)cs1 [r67] | 4.7 ± 0.7 | –
Fc1ccc(-c2csc(-c3ccc(-c4csnn4)cc3)n2)cc1F [r68] | 3.1 ± 0.34 | –
Cc1ccc(-c2csc(-c3ccc(-c4csnn4)cc3)n2)c(C)c1 [r69] | 9.3 ± 2.9 | –
Cc1ccc(-c2csc(-c3ccc(-c4csnn4)cc3)n2)cc1 [r70] | 5.5 ± 2.3 | –
O=[N+]([O-])c1ccc(-c2nc(-c3ccc(-c4csnn4)cc3)no2)cc1 [r75] | 8.8 ± 0.85 | –
Cc1csc(-c2ccc(-c3csnn3)cc2)n1 [r78] | 103 | GI50 [2]: 7.6 µM
CC(C)(C)c1csc(-c2ccc(-c3csnn3)cc2)n1 [r79] | 24 ± 1.5 | GI50 [2]: 33 µM
CCOC(=O)c1csc(-c2ccc(-c3csnn3)cc2)n1 [r80] | 48 | GI50 [2]: 31 µM
Cc1nc(-c2ccc(-c3csc(-c4cnccc4C(F)(F)F)n3)cc2)no1 [r81] | 46.5 | –
c1ccc(-c2ccc(-c3csc(-c4ccncc4)n3)cc2)cc1 [r83] | 11.7 | –
Nc1nc(-c2ccc3c(c2)Cc2ccccc2-3)cs1 [r84] | 11 ± 1.3 | –
c1ccc(-c2ccc(-c3csc(N4CCOCC4)n3)cc2)cc1 [r85] | 16 ± 4.8 | –
O=C(Nc1ncc(-c2ccc3c(c2)Cc2ccccc2-3)s1)c1ccccc1I [r87, N-(5-(9H-fluoren-7-yl)thiazol-2-yl)-2-iodobenzamide] | – | IC50 [1]: 4.3 ± 0.3 µM; IC50 [3]: 6.43 ± 0.43 µM
CC(=O)Nc1ncc(-c2ccc(-c3cnc(NC(C)=O)[nH]3)cc2)[nH]1 [r114, N,N′-(5,5′-(1,4-phenylene)bis(1H-imidazole-5,2-diyl))diacetamide] | – | IC50 [1]: 0.75 ± 0.13 µM; IC50 [3]: 2.1 µM
CN1CCN(Cc2ccc(C(=O)Nc3nc(-c4ccc(-c5csc(NC(=O)c6ccc(CN7CCN(C)CC7)cc6)n5)cc4)cs3)cc2)CC1 [r218, N,N′-(4,4′-(1,4-phenylene)bis(thiazolle-4,2-diyl))bis(4-((4-methylpiperazin-1-yl)methyl)benzamide)] | – | IC50 [1]: 1.3 ± 0.5 µM

The next lines start with results.

IC50 [1, 4] [µM] | SMILES | further results
1.3 ± 0.2 | CN1CCN(Cc2ccc(C(=O)Nc3nc(-c4ccc5c(c4)Cc4ccccc4-5)cs3)cc2)CC1 [r89] | GI50 [2]: 36 µM
57 ± 5 | c1ccc(-c2ccc(-c3cncs3)nc2)nc1 [r113] | –
27 ± 1.6 | Brc1ccccc1-c1ccc(-c2nccs2)nc1 [r116, 5-(2-bromophenyl)-2-(thiazol-2-yl)pyridine] | –
12 ± 1.2 | Clc1cc(-c2cccnc2)ccc1-c1cncs1 [r120, 3-(3-Chloro-4-thiazol-5-yl-phenyl)-pyridine] | –
42 ± 3.3 | Nc1nc(-c2ccc(-c3cccnc3)cn2)cs1 [r121] | –
37 ± 2.7 | O=C(Nc1nc(-c2ccc(-c3cccnc3)cn2)cs1)c1ccccc1 [r122] | –
11 ± 0.72 | O=C(Nc1nc(-c2ccc(-c3cccnc3)cn2)cs1)c1ccco1 [r124] | –
4.6 | CN1CCN(Cc2ccc(C(=O)Nc3ncc(-c4ccc(-c5cccnc5)cc4Cl)s3)cc2)CC1 [r127, N-[5-(2-Chloro-4-pyridin-3-yl-phenyl)-thiazol-2-yl]-4-(4-methyl-piperazin-1-ylmethyl)-benzamide] | –
6.7 | O=C(Nc1ncc(-c2ccc(-c3cccnc3)cc2Cl)s1)c1ccc(Br)o1 [r128, 5-Bromo-furan-2-carboxylic acid[5-(2-chloro-4-pyridin-3-yl-phenyl)-thiazol-2-yl]-amide] | –
82 ± 9 | Nc1nc(-c2ccc3c(c2)[nH]c2ccccc23)cs1 [r156, 4-(9H-Carbazol-2-yl)-thiazol-2-ylamine] | –
10 ± 0.73 | O=C(Nc1nc(-c2ccc3c(c2)[nH]c2ccccc23)cs1)c1ccccc1 [r158, N-[4-(9H-Carbazol-2-yl)-thiazol-2-yl]-benzamide] | –
17 ± 1.4 | O=C(Nc1nc(-c2ccc3c(c2)[nH]c2ccccc23)cs1)c1ccc(-c2ccccc2)cc1 [r169] | –
14 ± 1.6 | O=C(Nc1nc(-c2ccc3c(c2)[nH]c2ccccc23)cs1)c1ccc(Br)o1 [r170, 5-Bromo-furan-2-carboxylic acid[4-(9H-carbazol-2-yl)-thiazol-2-yl]-amide] | –
4.8 ± 0.7 | O=C(Nc1ccc(-c2ccc(-c3ncco3)nc2)cn1)c1ccc(Br)o1 [r200, 5-bromo-N-(5-(6-(oxazol-2-yl)pyridin-3-yl)pyridin-2-yl)furan-2-carboxamide] | –
17 ± 1.5 | O=C(c1ccc(Br)o1)N(C(=O)c1ccc(Br)o1)c1ccc(-c2ccc(-c3ncco3)nc2)cn1 [r201] | –
2.1 ± 0.7 | O=c1[nH]c(-c2ccc3c(c2)[nH]c2ccccc23)cs1 [r233] | –
21 ± 2.5 | Nc1ccc(-c2ccc(-c3cncs3)c(Cl)c2)cn1 [r235, 5-(3-cloro-4-(tiazol-5-il)fenil)piridin-2-ammina] | –
1.3 ± 0.4 | c1cc(-c2ccc(-c3ccoc3)cc2)co1 [r236, 1,4-di(furan-3-yl)benzene] | –
31 ± 5.7 | CN1CCN(C(=O)c2ccc(-c3ccc(-c4ccc(C(=O)N5CCN(C)CC5)o4)cc3)o2)CC1 [r237, (5-{4-[5-(4-Methyl-piperazine-1-carbonyl)-furan-2-yl]-phenyl}-furan-2-yl)-(4-methyl-piperazin-1-yl)-methasone] | –
20 ± 2.3 | O=C(O)c1ccc(-c2ccc(-c3ccc(C(=O)O)o3)cc2)o1 [r239, 5,5′-(1,4-phenylene)difuran-2-carboxylic acid] | –
3.7 ± 0.5 | COc1ncc(-c2ccc(-c3cccnc3)cc2Cl)s1 [r262, 5-(2-cloro-4-(piridin-3-il)fenil)-2-metossitiazolo] | –
